Laboratory results taken from US20250213529A1, “5-METHOXY-N.N-[…][…] THE TREATMENT OF PSYCHOMOTOR RETARDATION” (GH RESEARCH IRELAND LIMITED, priority 2022, published 2025).

Assays:
[1] = tested on: Escherichia coli (WP2 uvrA pKM101); experiment: Bacterial mutation test, Escherichia coli; format: cell-based; details: up to 5000 pg/plate; absence and presence of rat liver S-9
From the text: (§1) These conditions included treatments at concentrations up to […] (the maximum recommended concentration according to current regulatory guidelines), in the absence and in the presence of a rat liver metabolic activation system (S-9).

[2] = tested on: patients with postpartum depression (PPD); experiment: Clinical trial in patients with postpartum depression; details: PPD patient (n=1); for Total MADRS improvement / Total MADRS score: baseline 29; for BPRS Tension improvement: baseline 6
Procedure: The single-arm, open-label clinical trial will involve 15 adult female patients with clinically diagnosed postpartum depression (PPD).
The second dose (12 mg) will only be administered if: • a. […] The 6 mg dose was safe and well-tolerated according to the investigator, • c. Any psychoactive effects (PsE) of the prior dose have subsided, and • d. Pre-dose vital parameters and forced expiratory volume in one second (FEV1) are in normal range, or if outside of the normal range, are not clinically significant according to the investigator. • 3. Similarly, a third dose (18 mg) will only be administered if: • a. […] The 12 mg dose was safe and well-tolerated according to the investigator, and • c. Any PsE of the prior dose have subsided, and • d. Pre-dose vital parameters and forced expiratory volume in one second (FEV1) are in normal range, or if outside of the normal range, are not clinically significant according to the investigator.
The patients will be assessed for a peak psychedelic experience (based on a patient-scored visual analogue scale, the PE scale), sedation, and other endpoints after dosing. Follow-up visits are planned for Day 1, and Day 7 after the dosing day.
The following criteria must be met by all patients considered for clinical trial participation: • 1. Is female and in the age range between 18 and 45 years (inclusive) at screening. • 2. Has a body mass index (BMI) in the range of 18.5 and 35 kg/m^2 (inclusive) at screening. • 3. Meets the trial criteria for PPD as assessed by a trial psychiatrist or registered psychologist: • a. Diagnosis of Major Depressive Disorder without psychotic features, confirmed by the Mini-International Neuropsychiatric Interview (MINI), with peri-partum onset that began no earlier than gestation and no later than the first 4 weeks postpartum. • b. Has a Montgomery-Åsberg Depression Rating Scale (MADRS) total score of equal to or greater than 28 at screening and pre-dose on Day 0. • 6. […] Patients must have a negative pregnancy test at screening and on the pre-test day (Day −1). • 5. Is willing to delay start of other antidepressant or anxiety medication until after the end of the trial at Day 7 and agrees to keep any psychotherapy unchanged during the trial.
A potential patient who meets any of the following key exclusion criteria will be excluded from participation in this trial: • 1. Has, based on history, psychiatric assessment, and evaluation of the MINI, a current or prior diagnosis of bipolar disorder, a manic or hypomanic episode, a psychotic disorder, Major Depressive Disorder (MDD) or other mood disorder with psychotic features, obsessive compulsive disorder, post-traumatic stress disorder (PTSD), autism spectrum disorder, borderline personality disorder, schizophrenia, delusional disorder, paranoid personality disorder, schizoaffective disorder, clinically significant intellectual disability, or any other psychiatric comorbidity that renders the patient unsuitable for the trial according to the investigator's judgment. • 2. Has one or more first or second degree relatives with a current or previously diagnosed bipolar disorder, psychotic disorder or other mood disorder (including MDD) with psychotic features. • 3. Is in the judgement of a trial psychiatrist or registered psychologist, at significant risk for suicide based on history, psychiatric assessment, and evaluation of suicidal ideation and suicidal behaviour based on the Columbia-Suicide Severity Rating Scale (C-SSRS). • 4. Has taken anti-depressive medication within 14 days or 5 half-lives (whichever is longer) prior to dosing (exception: within the last 5 weeks in the case of fluoxetine). • 5.

[3] = Pharmacokinetics of 5-MeO-DMT and bufotenine after inhalation; format: in vivo, human; details: after 3 hours, 6, 12, 18 mg
[4] = tested on: Salmonella typhimurium (TA98, TA100, TA1535 and TA1537); experiment: Bacterial mutation test, Salmonella typhimurium; format: cell-based; details: up to 5000 µg/plate; absence and presence of rat liver S-9
From the text: as §1

[5] = IDR 6 then 12 mg inhaled, Day 0 score 5
[6] = IDR 6 then 12 mg inhaled, Day 0 score 6
[7] = IDR 6 then 12 mg inhaled, Day 1
[8] = IDR 6 then 12 mg inhaled, Day 7, Day 0 score 5
[9] = IDR 6 then 12 mg inhaled, Day 7, Day 0 score 6
[10] = IDR 6 then 12 mg inhaled, Day 7
[11] = IDR 6 then 12 mg inhaled, Day 7 vs Day 0

Question: With `COc1ccc2[nH]cc(CCN(C)C)c2c1` [5-MeO-DMT] as the compound, how does the Induction of mutation [1] read?
Answer: did not induce mutation

Question: And the “Tolerability of the inhalation procedure” value [2]?
Answer: well tolerated with no inhalation-related adverse events

Question: And the “Reported adverse events (cramping left abdominal pain and headache)” value ([2]; Day 0)?
Answer: mild, short-lasting and resolved spontaneously

Question: And the “BIMF total score improvement, percent” value ([2]; Day 7, from 92 to 105)?
Answer: 14%

Question: What about the “ECG, safety laboratory analyses, CADSS” value ([2]; ECG 3 hours, laboratory 7 days, CADSS 3 hours, 1 day, 7 days) of the same compound?
Answer: unremarkable

Question: What about the “MADRS remission (MADRS total score equal or less than 10)” value ([2]; IDR 6 then 12 mg inhaled) of the same compound?
Answer: fulfilled

Question: And the “MADRS response (at least 50% improvement from baseline)” value ([2]; IDR 6 then 12 mg inhaled)?
Answer: fulfilled

Question: What about the “Onset of clinical response after administration” value ([2]; IDR 6 then 12 mg inhaled) of the same compound?
Answer: ≤ 2 h

Question: And the “Time to clinical remission after administration” value ([2]; IDR 6 then 12 mg inhaled)?
Answer: ≤ 2 h

Question: And the “Durability of clinical response” value ([2]; IDR 6 then 12 mg inhaled, given once)?
Answer: sustained over the 7-day follow-up period

Question: What about the “Total MADRS improvement” value ([2]; IDR 6 then 12 mg inhaled, 2 hr) of the same compound?
Answer: 24

Question: And the “Total MADRS score” value ([2]; IDR 6 then 12 mg inhaled, 2 hr)?
Answer: 5

Question: What about the “BIMF item 19 (As time goes on, I am getting better at taking care of my baby) Δ (Day 7)” value ([2]; IDR 6 then 12 mg inhaled, Day 0 score 0) of the same compound?
Answer: 1

Question: And the “BIMF item 13 (I am taking good care of my physical needs) Δ (Day 7)” value ([2]; IDR 6 then 12 mg inhaled, Day 0 score 4)?
Answer: 1

Question: What about the “BIMF item 5 (I am able to relax and enjoy time with my baby) Δ (Day 7)” value [2, 5] of the same compound?
Answer: 1

Question: And the “BIMF item 9 (I am getting enough encouragement from other people) Δ (Day 7)” value [2, 5]?
Answer: 1

Question: And the “BIMF item 10 (I trust my own feelings (instincts) when it comes to taking care of my baby) Δ (Day 7)” value [2, 5]?
Answer: 1

Question: And the “BIMF item 11 (I take a little time each week to do something for myself) Δ (Day 7)” value [2, 5]?
Answer: 1

Question: What about the “BIMF item 17 (I am able to take care of my baby and my other responsibilities) Δ (Day 7)” value [2, 5] of the same compound?
Answer: 0

Question: What about the “BIMF item 3 (I am comfortable with the way I've chosen to feed my baby) Δ (Day 7)” value [2, 6] of the same compound?
Answer: 0

Question: And the “BIMF item 6 (There are people in my life that I can trust to care for my baby when I need a break) Δ (Day 7)” value [2, 6]?
Answer: 0

Question: And the “BIMF item 8 (I am getting enough adult interaction) Δ (Day 7)” value [2, 6]?
Answer: 0

Question: What about the “BIMF item 12 (I am taking good care of my baby's physical needs) Δ (Day 7)” value [2, 6] of the same compound?
Answer: 0

Question: What about the “BIMF item 14 (I make good decisions about my baby's health and well being) Δ (Day 7)” value [2, 6] of the same compound?
Answer: 0

Question: And the “BIMF item 20 (I am satisfied with the job I am doing as a new mother) Δ (Day 7)” value [2, 6]?
Answer: −1

Question: And the “BIMF TOTAL Δ (Day 7)” value ([2]; IDR 6 then 12 mg inhaled, Day 0 score 92)?
Answer: 13

Question: And the “BPRS Tension improvement” value [2, 7]?
Answer: 5

Question: What about the “Total MADRS improvement” value [2, 7] of the same compound?
Answer: 29

Question: What about the “Total MADRS score” value [2, 7] of the same compound?
Answer: 0

Question: And the “BIMF item 19 (As time goes on, I am getting better at taking care of my baby) score” value ([2]; IDR 6 then 12 mg inhaled, Day 7, Day 0 score 0)?
Answer: 1

Question: What about the “BIMF item 16 (I worry about how other people judge me (as a mother)) score” value ([2]; IDR 6 then 12 mg inhaled, Day 7, Day 0 score 3) of the same compound?
Answer: 5

Question: And the “BIMF item 13 (I am taking good care of my physical needs) score” value ([2]; IDR 6 then 12 mg inhaled, Day 7, Day 0 score 4)?
Answer: 5

Question: What about the “BIMF item 5 (I am able to relax and enjoy time with my baby) score” value [2, 8] of the same compound?
Answer: 6

Question: What about the “BIMF item 9 (I am getting enough encouragement from other people) score” value [2, 8] of the same compound?
Answer: 6

Question: What about the “BIMF item 10 (I trust my own feelings (instincts) when it comes to taking care of my baby) score” value [2, 8] of the same compound?
Answer: 6

Question: What about the “BIMF item 11 (I take a little time each week to do something for myself) score” value [2, 8] of the same compound?
Answer: 6

Question: What about the “BIMF item 17 (I am able to take care of my baby and my other responsibilities) score” value [2, 8] of the same compound?
Answer: 5

Question: What about the “BIMF functional domain Adjustment score” value ([2]; IDR 6 then 12 mg inhaled, Day 7, Day 0 score 5, maximum 12) of the same compound?
Answer: 6

Question: And the “BIMF item 3 (I am comfortable with the way I've chosen to feed my baby) score” value [2, 9]?
Answer: 6

Question: What about the “BIMF item 6 (There are people in my life that I can trust to care for my baby when I need a break) score” value [2, 9] of the same compound?
Answer: 6

Question: What about the “BIMF item 8 (I am getting enough adult interaction) score” value [2, 9] of the same compound?
Answer: 6

Question: What about the “BIMF item 12 (I am taking good care of my baby's physical needs) score” value [2, 9] of the same compound?
Answer: 6

Question: And the “BIMF item 14 (I make good decisions about my baby's health and well being) score” value [2, 9]?
Answer: 6

Question: And the “BIMF item 20 (I am satisfied with the job I am doing as a new mother) score” value [2, 9]?
Answer: 5

Question: And the “BIMF functional domain Self Care score” value ([2]; IDR 6 then 12 mg inhaled, Day 7, Day 0 score 9, maximum 18)?
Answer: 13

Question: What about the “BIMF functional domain Infant Care score” value ([2]; IDR 6 then 12 mg inhaled, Day 7, Day 0 score 12, maximum 12) of the same compound?
Answer: 12

Question: What about the “BIMF functional domain Mother-Child Interaction score” value ([2]; IDR 6 then 12 mg inhaled, Day 7, Day 0 score 15, maximum 18) of the same compound?
Answer: 17

Question: What about the “BIMF functional domain Social Support score” value ([2]; IDR 6 then 12 mg inhaled, Day 7, Day 0 score 17, maximum 18) of the same compound?
Answer: 18

Question: And the “BIMF functional domain Management score” value ([2]; IDR 6 then 12 mg inhaled, Day 7, Day 0 score 28, maximum 36)?
Answer: 33

Question: And the “BIMF functional domain Psychological Well-being score” value ([2]; IDR 6 then 12 mg inhaled, Day 7, Day 0 score 44, maximum 60)?
Answer: 53

Question: What about the “Total MADRS improvement” value [2, 10] of the same compound?
Answer: 28

Question: What about the “Total MADRS score” value [2, 10] of the same compound?
Answer: 1

Question: What about the “BIMF functional domain Adjustment % Improvement” value [2, 11] of the same compound?
Answer: 20.00%

Question: What about the “BIMF functional domain Infant Care % Improvement” value [2, 11] of the same compound?
Answer: 0.00%

Question: And the “BIMF functional domain Management % Improvement” value [2, 11]?
Answer: 18%

Question: And the “BIMF functional domain Self Care % Improvement” value [2, 11]?
Answer: 44%

Question: What about the “BPRS Tension improvement” value ([2]; IDR 6 then 12 mg inhaled, Discharge) of the same compound?
Answer: 5

Question: And the “PES score (intensity of the psychedelic experience)” value ([2]; nominal dose of 6 mg inhaled)?
Answer: 17.3

Question: What about the “Changes in vital parameters” value ([2]; shortly after administration) of the same compound?
Answer: temporary, clinically non-relevant increase in heart rate and blood pressure

Question: And the “PES score (intensity of the psychedelic experience)” value ([2]; subsequent dose of 12 mg inhaled)?
Answer: 85.7

Question: And the Detectability in plasma [3]?
Answer: no longer detectable

Question: And the Induction of mutation [4]?
Answer: did not induce mutation
